{"source": "ChEMBL document CHEMBL1151627", "about": "“Antineoplastic agents, 99. Amaryllis belladonna” (1984)", "key": {"[1]": {"system": "P388", "assay": "Cytotoxicity against mouse P388 cells", "assay_type": "functional", "settings": "read-out: ED50 (the source's name)"}, "[2]": {"system": "P388", "assay": "In vivo antitumor activity against mouse P388 cells at 5 to 200 mg/kg", "assay_type": "functional, organism-based"}, "[3]": {"system": "P388", "assay": "In vivo antitumor activity against mouse P388 cells at 1.25 to 10 mg/kg", "assay_type": "functional, organism-based"}, "[4]": {"system": "P388", "assay": "In vivo antitumor activity against mouse P388 cells at 20 mg/kg", "assay_type": "functional"}, "[5]": {"system": "P388", "assay": "In vivo antitumor activity against mouse P388 cells at 10 mg/kg", "assay_type": "functional"}, "[6]": {"system": "P388", "assay": "In vivo antitumor activity against mouse P388 cells at 75 mg/kg", "assay_type": "functional"}}, "note": "Calls of active or inactive are those of the source. The calls are words filed in the database; no cut-off is given here.", "data": [{"compound": "CC(=O)O[C@@H]1CC=C2CCN3Cc4cc5c(cc4[C@H]1[C@@H]23)OCO5", "note": "[ACETYLCARANINE]", "values": [{"measurement": "EC50", "setting": "[1]", "value": 0.23, "unit": "µg/mL"}, {"measurement": "Activity", "setting": "[2]", "value": "inactive"}]}, {"compound": "COc1c2c(cc3c1OCO3)[C@]13C=C[C@H](OC)C[C@H]1N(C2)C[C@@H]3O", "note": "[AMBELLINE]", "values": [{"measurement": "Activity", "setting": "[3]", "value": "inactive"}, {"measurement": "EC50", "setting": "[1]", "value": 1.6, "unit": "µg/mL"}]}, {"compound": "[Cl-].c1cc2c3c(c1)c1cc4c(cc1c[n+]3CC2)OCO4", "note": "[ANHYDROLYCORINIUM CHLORIDE]", "values": [{"measurement": "T/C", "setting": "[4]", "value": 169, "unit": "%"}, {"measurement": "T/C", "setting": "[5]", "value": 164, "unit": "%"}]}, {"compound": "O[C@H]1[C@H]2c3cc4c(cc3CN3CCC(=C[C@@H]1O)[C@H]23)OCO4", "note": "[LYCORINE]", "values": [{"measurement": "T/C", "setting": "[6]", "value": 135, "unit": "%"}]}]}
